Results: US20130190263A1 (LABORATORIO DE DIAGNOSTICO GAM, S.A., priority 2010, published 2013)
Converted amounts (≈) assume the structure as drawn.

Columns and labels:
ISA virus [1] = assay: Inhibition assay of the replicative cycle of ISAV in SHK-1 cells (real-time RT-PCR of supernatant); format: cell-based
[2] = 48 hours
[3] = test system: VHSV virus (Viral Hemorrhagic Septicemia Virus); settings: EPC cells, cited from earlier work
RNA viruses = settings: in general, in vitro; read-out: EC50 values (effective concentration 50%); cited from earlier work
SHK-1 cells [4] = settings: Atlantic salmon, 3 days
IPNV = settings: solution in the tank, exposure once during two hours; cited from earlier work
[5] = Degradation when autoclaved at 121° C., 15 psi, 25% relative humidity; format: physicochemical
[6] = Example 1: toxicity in healthy uninfected fish given the highest dose (tank C2)
SHK-1 cells [7] = assay: Cytotoxicity: cell viability of SHK-1 cells (propidium iodide cytometry); settings: relative to effective concentration
ISA virus [8] = assay: Example 1: determination of viral load in heart samples (real-time RT-PCR, TCID50); settings: for viral load in infected fish (intraperitoneal): FIG. 9
ISA virus [9] = assay: Example 1: necropsies analysis of infected treated fish; format: in vivo, Salmo salar; settings: infected fish of tanks T1 and T2; FIGS. 14 and 15
Text: The necropsy of the fish in the assay of controlled environment was made through external and internal clinical analysis, with registration of morphometric parameters, description and registration of pathological features (necropsy itself), sampling of internal organs (heart, kidney, spleen and gills) in ethanol and RNA later, with counter samples (i.e. duplication of the samples of the organs same), along with the sample of muscle locket with skin to be used afterwards in analysis of deficiency (presence of the Antiviral in the muscle).
The fish were subjected to necropsy process mostly within 24 hours post sampling.
At the end of the assay all fish were euthanized and necropsied.

ISA virus [10] = assay: Example 1: hematocrit of ISAV-infected treated fish; format: in vivo, Salmo salar; settings: live fish
cell cultures = settings: cited from earlier work

## CCOC(=O)C1=C[C@@H](OC(CC)CC)[C@H](NC(C)=O)[C@@H](N)C1 [oseltamivir]
ISA virus [1]; concentrations as high as 300 μg/mL, SHK-1 cells, 3 days post-infection, FIG. 1
  inhibition of the replication of ISA virus: no more than 60%

## NC(=O)c1ncn([C@@H]2O[C@H](CO)[C@@H](O)[C@H]2O)n1 [ribavirin, 1-beta-D-ribofuranosyl-1H-1,2,4-triazole-3-carboxamide]
ISA virus [1]; 72 h, read-out: concentration which inhibits 50% of ISA virus replication (EC50)
  EC50: ~0.4 µg/mL (≈ 1.64 µM)
[2]
  stability of the aqueous solution: ≤ 48 h
[3]; 25 μg/ml added at 0 hours post infection, at 10 hours post infection
  RNA inhibition: 99.8%
[3]; concentrations of 5, 10 and 25 μg/ml
  inhibition of the virus: strong inhibition
RNA viruses
  EC50: ≥ 1000 nM
SHK-1 cells [4]
  concentration that produces 50% of cell toxicity (CC50): > 400000 µg/mL
IPNV
  decreased rate of dead fish: about 5%
[5]; 5 minutes in autoclave
  % Antiviral: 97.2%
[5]; 10 minutes in autoclave
  % Antiviral: 91.9%
[5]; 20 minutes drying + 30 minutes in autoclave
  % Antiviral: 99.5%
[5]; 30 minutes in autoclave
  % Antiviral: 90.3%
[6]; healthy fish receiving a high dose (C2)
  signs of anemia: no signs of developing anemia
[6]; tank C2, healthy, dose of 1600 μg/mL
  hematocrit: 54%
SHK-1 cells [7]
  no cytotoxicity in concentrations times higher than the actual: up to 10^7 times
ISA virus [8]; highest dose (T1) compared with T2 and C3, FIG. 8
  viral load in dead fish: significantly lower
ISA virus [8]; highest dose (T1)
  viral load in infected fish (intraperitoneal): lower
ISA virus [8]; lowest dose (T2) versus untreated (C3)
  viral load in infected fish (intraperitoneal): practically the same
ISA virus [8]; tanks T1 and T2 versus C3, FIG. 6
  average viral load (total): smaller than the uninfected fish
ISA virus [9]
  necropsy findings: mild inflammatory signs
ISA virus [10]; tank T1, infected, dose of 800 μg/mL
  hematocrit: ~45%
ISA virus [10]; tank T2, infected, dose of 400 μg/mL
  hematocrit: ~45%
Cell cultures
  CC50: 100 µg/mL (≈ 409 µM)

## O=C(O)C1=C[C@@H](O)[C@@H](O)[C@H](O)C1 [shikimic acid]
ISA virus [1]; up to concentrations of 300 μg/ml, FIG. 2
  viral replication inhibition: no viral replication inhibition
